Assay results as given in patent publication US20110112053A1, “PHARMACOLOGICAL TARGETING OF VASCULAR MALFORMATIONS” (University of Utah Research Foundation, priority 2008, published 2011).

Columns and labels:
[1] = molecular target: geranylgeranyltransferase I (GGTase I) (Homo sapiens, UniProt P53609); details: cited from earlier work
[2] = tested on: JNK; assay: Immunoblot for phosphorylated and total JNK; format: cell-based, human; details: 10 μM Y-27632 for 30 min prior to cell lysis
Description: MAPK Profiling. siRNA transfected cells were lysed in RIPA buffer (50 mM Tris pH 7.4, 150 mM NaCl, 1% NP-40) supplemented with protease and phosphatase inhibitors. Lysates were then analyzed by western blotting. Antibodies to phospho-JNK and total JNK were from Santa Cruz Biotechnology. Antibodies to phospho-ERK, phospho-p38, phospho-MKK4, phospho-MKK7, total ERK, total p38, total MKK4, and total MKK7 were from Cell Signaling Technology. The effect of ROCK inhibitor on JNK was tested by treating cells with 10 μM Y-27632 for 30 min prior to cell lysis. The effect of simvastatin on JNK was determined by treating cells with 10 μM simvastatin for 24 h prior to cell lysis.

[3] = tested on: mice; details: mouse, in vivo
[4] = tested on: CCM2-depleted HMVECs; assay: Phalloidin staining for actin stress fibers; format: cell-based, human
Description: Immunofluorescent Cell Staining. Glass chamber slides were coated with human fibronectin (Biomedical Technologies, Inc.), and transfected cells were seeded at 50,000 cells per well. For the RhoA and ROCK experiment, cells were treated four days after seeding with 40 μg/mL of cell-permeable C3 transferase (Cytoskeleton, Inc.) or 20 μM Y-27632 for 4 hours. For the simvastatin experiment, cells were treated three days after seeding with 40 μM simvastatin (Calbiochem) or equivalent amounts of ethanol in growth media for 24 hours. Cells were fixed in 4% formaldehyde and incubated with an antibody against β-catenin (BD Biosciences). Fluorescent secondary antibody (Molecular Probes) was used to visualize β-catenin staining Actin cytoskeleton was visualized using fluorescently-conjugated phalloidin (Molecular Probes). Images were obtained with an Olympus FV300 confocal microscope.

[5] = tested on: CCM2-depleted HMVECs; assay: Transendothelial electrical resistance (barrier function); format: cell-based, human; details: C3 transferase 1 μg ml^−1
Description: Transendothelial Resistance. An electrode culture array (Applied Biophysics) was coated with human fibronectin and transfected cells were seeded at 50,000 cells per well. Three days after seeding, cells were serum-starved in endothelial basal medium-2 with 0.2% BSA overnight. Transendothelial resistance was measured with an electric cell-substrate impedance sensing system (Applied Biophysics). Cell-permeable C3 transferase (1 μg ml^−1) was added to inhibit RHOA. For basal resistance, 40 wells each were measured for Rho inhibition experiments, six control wells each and ten C3 transferase wells each were measured.

CC(C)C[C@H](NC(=O)c1ccc(NCc2c[nH]cn2)cc1-c1cccc2ccccc12)C(=O)O.O=C(O)C(F)(F)F [GGTI-2133, N-[[4-(Imidazol-4-yl)methylamino]-2-(1-naphthyl)benzoyl]leucine trifluoroacetate salt]
selectivity for GGTase I over farnesyltransferase [1]: 140 fold

C[C@@H](N)[C@H]1CC[C@H](C(=O)Nc2ccncc2)CC1 [Y-27632, (R)-(+)-trans-N-(4-Pyridyl)-4-(1-aminoethyl)-cyclohexanecarboxamide]
activation (phosphorylation) of JNK [2]: decreased the activation of JNK | tolerability in mice [3]: do not tolerate | actin stress fiber response ([4]; 20 μM Y-27632, 4 hours): blocked the stress fiber response

C3 transferase
barrier function (transendothelial resistance) [5]: significantly rescue barrier function | actin stress fiber response ([4]; 40 μg/mL cell-permeable C3 transferase, 4 hours): blocked the stress fiber response
